The supplement of paper PMC10307832

What was measured:
Test in all cases: relative viability (nuclei count vs DMSO), 5 days (fraction); higher = more cells survive
Veliparib + Palbociclib = compound: C[C@]1(c2nc3c(C(N)=O)cccc3[nH]2)CCCN1 [Veliparib] + CC(=O)c1c(C)c2cnc(Nc3ccc(N4CCNCC4)cn3)nc2n(C2CCCC2)c1=O [Palbociclib] (partner 0.5 µM)
How it was run: (§1)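 Relative viability is defined as nuclei in treated wells over nuclei in vehicle wells. Duplicate plates were run and medians reported. Lung cancer cell lines in 1536-well plates were dosed by pin tool one day after seeding, with one drug or with a fixed anchor-drug dose plus five library-drug doses (not always all listed) in √10 steps, and nuclei were counted after 5 days.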

[1] = compound: COC1=CC=C(C=C1)CN2C=CC3=C2C=C(C=C3)C(=O)NO + C[C@]1(O)C[C@@H](c2nc(-c3ccc4ccc(-c5ccccc5)nc4c3)c3c(N)nccn32)C1 [Linsitinib] (partner 1 µM)
How it was run: as §1

Veliparib + Decitabine = compound: C[C@]1(c2nc3c(C(N)=O)cccc3[nH]2)CCCN1 [Veliparib] + Nc1ncn([C@H]2C[C@H](O)[C@@H](CO)O2)c(=O)n1 [Decitabine] (partner 2 µM)
How it was run: as §1

[2] = compound: COC1=CC=C(C=C1)CN2C=CC3=C2C=C(C=C3)C(=O)NO + C[C@@H](Oc1cc(-c2cnn(C3CCNCC3)c2)cnc1N)c1c(Cl)ccc(F)c1Cl [Crizotinib] (partner 1 µM)
How it was run: as §1

| Cell Line | relative viability (Veliparib + Palbociclib; first compound 0.02 µM) | relative viability (Veliparib + Palbociclib; first compound 0.06325 µM) | relative viability (Veliparib + Palbociclib; first compound 0.2 µM) | relative viability (Veliparib + Palbociclib; first compound 0.6325 µM) | relative viability (Veliparib + Palbociclib; first compound 2 µM) | relative viability ([1]; first compound 0.08 µM) | relative viability ([1]; first compound 0.253 µM) | relative viability ([1]; first compound 0.8 µM) | relative viability ([1]; first compound 2.53 µM) | relative viability ([1]; first compound 8 µM) | relative viability (Veliparib + Decitabine; first compound 0.02 µM) | relative viability (Veliparib + Decitabine; first compound 0.06325 µM) | relative viability (Veliparib + Decitabine; first compound 0.2 µM) | relative viability (Veliparib + Decitabine; first compound 0.6325 µM) | relative viability (Veliparib + Decitabine; first compound 2 µM) | relative viability ([2]; first compound 0.08 µM) | relative viability ([2]; first compound 0.253 µM) | relative viability ([2]; first compound 0.8 µM) | relative viability ([2]; first compound 2.53 µM) | relative viability ([2]; first compound 8 µM) |
| --- | --- | --- | --- | --- | --- | --- | --- | --- | --- | --- | --- | --- | --- | --- | --- | --- | --- | --- | --- | --- |
| 201T | 0.352 | 0.353 | 0.364 | 0.356 | 0.373 | 1.04 | 1.01 | 1.13 | 1.06 | 1.03 | 0.886 | 0.844 | 0.795 | 0.795 | 0.785 | 1.02 | 0.999 | 1.06 | 1.08 | 0.969 |
| A549 |  |  |  |  |  |  | 0.678 | 0.595 | 0.697 | 0.558 | 0.202 | 0.137 | 0.0868 | 0.106 | 0.0789 |  | 0.767 | 0.855 | 0.617 | 0.63 |
| A-427 | 0.507 | 0.51 | 0.529 | 0.5 | 0.593 |  | 1.08 | 1.11 | 1.16 | 1.1 | 0.557 | 0.473 | 0.593 | 0.492 | 0.546 |  | 0.857 | 1.03 | 0.828 | 0.884 |
| ABC-1 |  |  | 0.863 | 0.694 | 0.405 |  | 0.924 | 0.789 | 0.732 | 0.885 |  |  | 0.82 | 1.07 | 1.06 |  | 1.3 | 1.17 | 1.31 | 1.12 |
| BEN | 0.466 | 0.491 | 0.479 | 0.5 | 0.465 | 0.87 | 0.875 | 0.904 | 0.869 | 0.907 | 0.572 | 0.581 | 0.613 | 0.565 | 0.624 | 0.756 | 0.814 | 0.894 | 0.869 | 0.851 |
| CAL-12T | 0.179 | 0.301 | 0.402 | 0.382 | 0.58 | 0.695 | 0.917 | 0.756 | 0.76 | 0.786 |  |  |  |  |  | 0.474 | 0.616 | 0.702 | 0.686 | 0.542 |
| COR-L23 | 0.27 | 0.237 | 0.252 | 0.25 | 0.27 | 0.558 | 1.09 | 0.817 | 0.872 | 0.836 | 0.406 | 0.315 | 0.255 | 0.287 | 0.289 | 0.499 | 0.77 | 0.503 | 0.574 | 0.632 |
| COR-L 105 | 0.402 | 0.47 | 0.4 | 0.375 | 0.444 |  | 0.945 | 0.763 | 0.983 | 0.765 | 0.634 | 0.66 | 0.744 | 0.59 | 0.599 |  | 0.847 | 0.714 | 0.775 | 0.434 |
| Calu-6 |  |  |  |  |  |  | 0.961 | 0.949 | 0.906 | 0.902 |  |  |  |  |  | 0.433 | 0.759 | 0.773 | 0.894 | 0.71 |
| ChaGo-K-1 | 0.712 | 0.951 | 1.02 | 0.892 | 0.944 |  |  |  |  |  | 0.446 | 0.453 | 0.411 | 0.439 | 0.422 |  | 1.24 | 1.06 | 1.09 | 0.926 |
| EBC-1 |  |  |  |  |  |  | 0.883 | 0.941 | 0.907 | 0.768 |  |  |  |  |  |  | 0.183 | 0.201 | 0.179 | 0.181 |
| EKVX |  | 0.42 | 0.403 | 0.373 | 0.383 | 0.825 | 1.07 | 1.06 | 1.12 | 1.03 |  | 0.319 | 0.364 | 0.338 | 0.294 | 0.767 | 0.762 | 1.16 | 0.891 | 0.934 |
| EMC-BAC-2 | 0.527 | 0.487 | 0.512 | 0.486 | 0.544 | 0.686 | 0.867 | 0.839 | 0.814 | 0.839 | 0.997 |  | 0.936 | 0.874 | 0.984 | 0.224 | 0.828 | 0.746 | 0.708 | 0.687 |
| EPLC-272H |  | 0.355 | 0.35 | 0.317 | 0.302 | 0.987 | 1.18 | 1.14 | 1.14 | 1.05 |  | 0.312 | 0.387 | 0.331 | 0.393 | 0.825 | 0.906 | 1.08 | 0.867 | 0.896 |
| H3255 | 0.344 | 0.309 | 0.298 | 0.304 | 0.358 | 0.853 | 1.01 | 0.943 | 0.859 | 0.835 | 0.615 | 0.538 | 0.713 | 0.567 | 0.589 | 0.571 | 0.933 | 0.88 | 0.833 | 0.787 |
| HARA | 0.352 | 0.174 | 0.308 | 0.327 | 0.265 | 0.126 | 1.01 | 1.01 | 1.07 | 0.962 | 0.565 |  | 0.47 | 0.499 | 0.311 | 0.194 | 1.1 | 0.99 | 1.09 | 0.951 |
| HCC-15 | 0.679 | 0.675 | 0.782 | 0.703 | 0.718 | 0.802 | 0.877 | 0.887 | 0.968 | 0.915 | 0.572 | 0.56 | 0.589 | 0.562 | 0.502 | 0.616 | 0.805 | 0.919 | 0.787 | 0.814 |
| HCC-44 | 1 | 0.834 | 0.996 | 0.964 | 1.01 | 0.568 | 0.69 | 0.681 | 0.705 | 0.637 | 0.941 | 0.797 | 0.907 | 0.857 | 0.902 | 0.746 | 0.781 | 0.824 | 0.852 | 0.815 |
| HCC-78 | 0.459 | 0.458 | 0.454 | 0.456 | 0.442 |  | 0.542 | 0.537 | 0.491 | 0.453 | 0.637 | 0.589 | 0.603 | 0.517 | 0.491 |  | 0.373 | 0.345 | 0.342 | 0.344 |
